Measurements taken from PubChem BioAssay AID1919014 (Molecular Pharmacology Branch, DTP, NCI, 2023).

System: NCI-H1341 complex spheroids, percent test/control
Test: Anticancer human tumor NCI-H1341 cell line growth inhibition [AhR];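 note: spheroids exposed to agents for seven days before readout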
Conditions: for IC50: curve of first compound; for viability, T/C: stronger effect = lower value
How it was run: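 Spheroids combined tumor cells with HUVEC endothelial cells and human MSCs as stroma. AhR antagonists were paired with standard or investigational drugs, each dosed in half-log steps down from near clinical Cmax, or from 10 microM where Cmax was unknown.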

[1] = second compound 0.1 µM, first compound 0.0316 µM
[2] = second compound 0.1 µM, first compound 0.1 µM
[3] = second compound 0.1 µM, first compound 0.316 µM
[4] = second compound 0.1 µM, first compound 1 µM
[5] = second compound 0.1 µM, first compound 3.16 µM
[6] = second compound 0.1 µM, first compound 10 µM
[7] = second compound 0.316 µM, first compound 0.0316 µM
[8] = second compound 0.316 µM, first compound 0.1 µM
[9] = second compound 0.316 µM, first compound 0.316 µM
[10] = second compound 0.316 µM, first compound 1 µM
[11] = second compound 0.316 µM, first compound 3.16 µM
[12] = second compound 0.316 µM, first compound 10 µM
[13] = second compound 1 µM, first compound 0.0316 µM
[14] = second compound 1 µM, first compound 0.1 µM
[15] = second compound 1 µM, first compound 0.316 µM
[16] = second compound 1 µM, first compound 1 µM
[17] = second compound 1 µM, first compound 3.16 µM
[18] = second compound 1 µM, first compound 10 µM
[19] = second compound 3.16 µM, first compound 0.0316 µM
[20] = second compound 3.16 µM, first compound 0.1 µM
[21] = second compound 3.16 µM, first compound 0.316 µM
[22] = second compound 3.16 µM, first compound 1 µM
[23] = second compound 3.16 µM, first compound 3.16 µM
[24] = second compound 3.16 µM, first compound 10 µM
[25] = second compound 10 µM, first compound 0.0316 µM
[26] = second compound 10 µM, first compound 0.1 µM
[27] = second compound 10 µM, first compound 0.316 µM
[28] = second compound 10 µM, first compound 1 µM
[29] = second compound 10 µM, first compound 3.16 µM
[30] = second compound 10 µM, first compound 10 µM

Compound `CC(C)CC(NC(=O)C(Cc1ccccc1)NC(=O)c1cnccn1)B(O)O` (stereo not given) + CC(CO)NC(=O)c1cc(-c2ccc(Cl)cc2)nn(-c2cnn(C)c2)c1=O has an IC50 (second compound 0.1 µM) of 4.61 nM, an IC50 (second compound 0.316 µM) of 4.3 nM and an IC50 (second compound 1 µM) of 4.31 nM. It also gave an IC50 (second compound 3.16 µM) of 3.55 nM, an IC50 (second compound 10 µM) of 3.81 nM and a viability, T/C (second compound 0.1 µM, first compound 0.000949 µM) of 89.8%. The viability, T/C (second compound 0.1 µM, first compound 0.003 µM) was 79.2%, the viability, T/C (second compound 0.1 µM, first compound 0.00949 µM) was 0.86% and the viability, T/C (second compound 0.1 µM, first compound 0.03 µM) was 0.08%. The viability, T/C (second compound 0.1 µM, first compound 0.0949 µM) was 0.36%, the viability, T/C (second compound 0.1 µM, first compound 0.3 µM) was 0.13% and the viability, T/C (second compound 0.316 µM, first compound 0.000949 µM) was 88.1%. For the same compound, the viability, T/C (second compound 0.316 µM, first compound 0.003 µM) was 72.6%, the viability, T/C (second compound 0.316 µM, first compound 0.00949 µM) was 0.3% and the viability, T/C (second compound 0.316 µM, first compound 0.03 µM) was 0.06%. The viability, T/C (second compound 0.316 µM, first compound 0.0949 µM) was 0.04%, the viability, T/C (second compound 0.316 µM, first compound 0.3 µM) was 0.68% and the viability, T/C (second compound 1 µM, first compound 0.000949 µM) was 70.3%. The viability, T/C (second compound 1 µM, first compound 0.003 µM) was 75%, the viability, T/C (second compound 1 µM, first compound 0.00949 µM) was 0.31% and the viability, T/C (second compound 1 µM, first compound 0.03 µM) was 0.09%. It also gave a viability, T/C (second compound 1 µM, first compound 0.0949 µM) of 1.13%, a viability, T/C (second compound 1 µM, first compound 0.3 µM) of 0.28% and a viability, T/C (second compound 3.16 µM, first compound 0.000949 µM) of 86.3%. It also gave a viability, T/C (second compound 3.16 µM, first compound 0.003 µM) of 58.4%, a viability, T/C (second compound 3.16 µM, first compound 0.00949 µM) of 0.91% and a viability, T/C (second compound 3.16 µM, first compound 0.03 µM) of 0.08%. It also gave a viability, T/C (second compound 3.16 µM, first compound 0.0949 µM) of 0.98%, a viability, T/C (second compound 3.16 µM, first compound 0.3 µM) of 0.6% and a viability, T/C (second compound 10 µM, first compound 0.000949 µM) of 83.4%. The viability, T/C (second compound 10 µM, first compound 0.003 µM) was 62.9%, the viability, T/C (second compound 10 µM, first compound 0.00949 µM) was 1.02% and the viability, T/C (second compound 10 µM, first compound 0.03 µM) was 0.15%. The viability, T/C (second compound 10 µM, first compound 0.0949 µM) was 0.12% and the viability, T/C (second compound 10 µM, first compound 0.3 µM) was 0.45%.

Work on `COc1cc(Nc2ncc3c(n2)-c2ccc(Cl)cc2C(c2c(F)cccc2OC)=NC3)ccc1C(=O)O` + CC(CO)NC(=O)c1cc(-c2ccc(Cl)cc2)nn(-c2cnn(C)c2)c1=O yielded an IC50 (second compound 0.1 µM) of under 31.6 nM, an IC50 (second compound 0.316 µM) of under 31.6 nM and an IC50 (second compound 1 µM) of under 31.6 nM. The IC50 (second compound 3.16 µM) was under 31.6 nM, the IC50 (second compound 10 µM) was under 31.6 nM and the viability, T/C [1] was 39.7%. The viability, T/C [2] was 45.7%, the viability, T/C [3] was 37.7% and the viability, T/C [4] was 34.2%. For the same compound, the viability, T/C [5] was 28.7%, the viability, T/C [6] was 28.6% and the viability, T/C [7] was 50.5%. It also gave a viability, T/C [8] of 34.5%, a viability, T/C [9] of 35.5% and a viability, T/C [10] of 38.2%. For the same compound, the viability, T/C [11] was 29.5%, the viability, T/C [12] was 27.6% and the viability, T/C [13] was 46.4%. It also gave a viability, T/C [14] of 44.2%, a viability, T/C [15] of 37.2% and a viability, T/C [16] of 37.5%. For the same compound, the viability, T/C [17] was 33.1%, the viability, T/C [18] was 26.7% and the viability, T/C [19] was 38.4%. For the same compound, the viability, T/C [20] was 35.4%, the viability, T/C [21] was 34% and the viability, T/C [22] was 35.8%. For the same compound, the viability, T/C [23] was 30.6%, the viability, T/C [24] was 27.6% and the viability, T/C [25] was 35.6%. For the same compound, the viability, T/C [26] was 39.7%, the viability, T/C [27] was 39% and the viability, T/C [28] was 29.2%. The viability, T/C [29] was 27% and the viability, T/C [30] was 28.2%.

Compound `Nc1ccccc1NC(=O)c1ccc(CNC(=O)OCc2cccnc2)cc1` + CC(CO)NC(=O)c1cc(-c2ccc(Cl)cc2)nn(-c2cnn(C)c2)c1=O has an IC50 (second compound 0.1 µM) of 144 nM, an IC50 (second compound 0.316 µM) of 204 nM and an IC50 (second compound 1 µM) of 187 nM. The IC50 (second compound 3.16 µM) was 133 nM, the IC50 (second compound 10 µM) was 52.3 nM and the viability, T/C [1] was 66.7%. It also gave a viability, T/C [2] of 58.1%, a viability, T/C [3] of 34.4% and a viability, T/C [4] of 14.8%. For the same compound, the viability, T/C [5] was 6.51%, the viability, T/C [6] was 0.25% and the viability, T/C [7] was 74.3%. It also gave a viability, T/C [8] of 60.1%, a viability, T/C [9] of 45% and a viability, T/C [10] of 15.6%. For the same compound, the viability, T/C [11] was 6.91%, the viability, T/C [12] was 0.6% and the viability, T/C [13] was 60.9%. It also gave a viability, T/C [14] of 64%, a viability, T/C [15] of 40% and a viability, T/C [16] of 16.7%. For the same compound, the viability, T/C [17] was 8.93%, the viability, T/C [18] was 0.42% and the viability, T/C [19] was 63.4%. For the same compound, the viability, T/C [20] was 57.3%, the viability, T/C [21] was 31.3% and the viability, T/C [22] was 12.1%. For the same compound, the viability, T/C [23] was 6.39%, the viability, T/C [24] was 0.79% and the viability, T/C [25] was 56.6%. It also gave a viability, T/C [26] of 41.3%, a viability, T/C [27] of 26.4% and a viability, T/C [28] of 12.6%. The viability, T/C [29] was 4.04% and the viability, T/C [30] was 0.25%.

`O=C(C=Cc1cccc(S(=O)(=O)Nc2ccccc2)c1)NO` + CC(CO)NC(=O)c1cc(-c2ccc(Cl)cc2)nn(-c2cnn(C)c2)c1=O was tested, and the IC50 (second compound 0.1 µM) was 230 nM, the IC50 (second compound 0.316 µM) was 278 nM and the IC50 (second compound 1 µM) was 258 nM. The IC50 (second compound 3.16 µM) was 262 nM, the IC50 (second compound 10 µM) was 163 nM and the viability, T/C [1] was 73.7%. It also gave a viability, T/C [2] of 65.4%, a viability, T/C [3] of 41.8% and a viability, T/C [4] of 27.1%. It also gave a viability, T/C [5] of 4.5%, a viability, T/C [6] of 0.64% and a viability, T/C [7] of 81.9%. It also gave a viability, T/C [8] of 65.6%, a viability, T/C [9] of 48.6% and a viability, T/C [10] of 27.8%. For the same compound, the viability, T/C [11] was 5.91%, the viability, T/C [12] was 0.46% and the viability, T/C [13] was 84.8%. It also gave a viability, T/C [14] of 68.1%, a viability, T/C [15] of 45.7% and a viability, T/C [16] of 25.5%. For the same compound, the viability, T/C [17] was 5.09%, the viability, T/C [18] was 1.14% and the viability, T/C [19] was 78.9%. For the same compound, the viability, T/C [20] was 63.3%, the viability, T/C [21] was 49.7% and the viability, T/C [22] was 21.9%. It also gave a viability, T/C [23] of 5.78%, a viability, T/C [24] of 0.71% and a viability, T/C [25] of 70.6%. It also gave a viability, T/C [26] of 52.7%, a viability, T/C [27] of 44.5% and a viability, T/C [28] of 20.3%. It also gave a viability, T/C [29] of 5.56% and a viability, T/C [30] of 0.44%.
